Measured values as given in US5413787A, “Bioparyl, a biological regulator, active against various pathologies” (priority 1988, dated 1995).

Tests used:
[1] = test system: RNases in plasma of healthy persons; test: Effect of iron on in vitro activity of RNases of healthy persons; format: biochemical, human; conditions: FIG. 5
Experimental: (§1) Bioparyl dissolved in distilled water (pH 7.0, 5 mg/ml) is used (0.01 to 0.05 ml). Incubation medium (0.15 ml final volume) contains: Tris-HCl buffer, 10^-2 M pH 7.60: 0.05 ml; ^3 H-RNA (r-RNA or 4 S RNA), 100 μg, 15,000 CPM: 0.05 ml; ten-times diluted plasma: 0.01 to 0.05 ml. After incubation at 36° C. for 10 min. (water bath) (generally necessary conditions but that may vary in case of necessity), the reaction is stopped by addition of 3 ml trichloroacetic acid (TCA) (5%); the tubes are cooled in order to assure a good precipitation of proteins and undegraded ^3 H-RNA.
(§2) The precipitate is filtered on glass millipore (GF/C, Whatman), washed with 5% TCA solution then with 95° ethyl alcohol. The filters are dried and the radioactivity determined in a scintillation spectrometer. The results are expressed as percent of non-degraded radioactive RNA, the radioactivity of initial intact RNA being taken as 100%.
(§3) One knows that the RNases enable the furnishing of the RNA primers necessary for the replication of DNA, and that the primers accepted by DNA from healthy tissues are not the same as the primers required for replication of DNA from cancer tissues. Thus, regulation of RNases (enzymes able to provide primers in cells)is a capital phenomenon in carcinology and virology.

[2] = test system: RNases from patients affected by cancers, auto-immune diseases or viral pathologies; test: Effect of iron on in vitro activity of RNases from patients; format: biochemical, human; conditions: cancers (leukemia, solid cancers)
Experimental: as §1, §2, §3

[3] = test system: RNases from human fibrosis skin; test: In vitro RNase activity of radiation-induced skin fibrosis extract (r-RNA degradation); format: biochemical; conditions: FIG. 7
Experimental: Sample of skin fibrosis induced by radiation has been broken in a mortar (4° C.) in the presence of Tris-HCl buffer 0.02M containing 0.06M KCl and 0.001M MgCl2. Final volume: 1.5 ml. The activity of RNases present in this extract has been tested with 4 S RNA and ribosomal RNA (r-RNA); 0.01; 0.02; 0.03 and 0.04 ml of enzyme extract were incubated in the presence of radioactive ^3 H-r-RNA or ^3 H-4 S RNA. Incubation time: 15 min. at 36° C. The results are illustrated in FIG. 7. Degradation of labelled RNA is linear in function of increasing concentration of the extract. r-RNA is more rapidly degraded than 4 S RNA. […] Ferric iron (FeCl3), at low concentrations, stimulates r-RNA degradation; but at higher concentrations it inhibits it.

[Cl][Fe]([Cl])[Cl] [Ferric iron]
in vitro activity of RNases of healthy persons under iron [1]: without effect
in vitro activity of RNases from patients under ferric iron [2]: strongly accelerates
r-RNA degradation by fibrosis skin RNases, FeCl3 higher concentrations ([3]; at higher concentrations): inhibits
r-RNA degradation by fibrosis skin RNases, FeCl3 low concentrations ([3]; at low concentrations): stimulates
